Test results taken from patent publication US6602906B1 (priority 2002, dated 2003).
Like-named read-outs stand apart in the source and are kept apart here.

Assays:
[1] = Storage stability of the 5.0 wt % topical solution; format: physicochemical
Protocol: For topical use, a homogeneous solution in accordance with the present invention containing 5.0 wt % 5,6-O-isopropylidene L-ascorbic acid was prepared by mixing the ingredients shown in TABLE 1. The ingredients were added in the order given and in the given amounts. The solution was prepared in a glass container with continuous stirring. After the addition of the zinc sulfate, and again after the addition of the glycerin, the solution was heated to approximately 60° C. The heating increased the solubility of the 2-phenoxyethanol and of the 5,6-O-isopropylidene L-ascorbic acid. The solution was then filtered through a fine plastic mesh, yielding a clear, colorless to very pale yellow liquid. The 5,6-O-isopropylidene L-ascorbic acid in this solution will retain its potency for approximately six months if the solution is stored at room temperature in a bottle that is impervious to ultraviolet light. In darkness at 10° C., 5,6-O-isopropylidene L-ascorbic acid in solution will remain stable and potent for approximately 18 months.

inflamed skin = inflamed skin treated with acetone; cited from earlier work
pig skin = settings: applied topically prior to UVB; cited from earlier work
mouse skin = settings: topical application, (hairless) mice; cited from earlier work
skin of humans = settings: topical application; cited from earlier work
[2] = 20 wt %, pH 2.0; cited from earlier work
human skin = settings: applied topically prior to UVB; cited from earlier work
[3] = in the human; cited from earlier work
[4] = neutral pH; cited from earlier work
mice = settings: topical; cited from earlier work
[5] = cited from earlier work

CC1(C)OC[C@@H]([C@H]2OC(=O)C(O)=C2O)O1 [5,6-O-isopropylidene L-ascorbic acid]
time the compound in solution retains its potency ([1]; 5.0 wt % solution of TABLE 1, room temperature, bottle impervious to ultraviolet light): approximately six | time the compound in solution remains stable and potent ([1]; solution, in darkness at 10° C.): approximately 18 months

CC(C)=O [acetone]
erythema and edema (inflamed skin): diminished | presence of mononuclear cells (indicator of inflammation) (inflamed skin): significant decrease

O=C1O[C@H]([C@@H](O)CO)C(O)=C1O [ascorbic acid]
erythema and sunburn after UVB irradiation (pig skin): erythema and sunburn were prevented | photoaging changes / protection against photoaging in mouse skin (mouse skin): decreased | photoaging changes in the skin (skin of humans): decreased | skin irritation [2]: highly irritating to the skin | erythema and sunburn after UVB irradiation (human skin): erythema and sunburn were prevented | half-life [3]: about 20 days | stability in aqueous solutions [4]: very unstable | pKa (pKa of the molecule): […] | protection against UV-induced immunosuppression and tolerance to contact antigen (mice): protect against UV-induced immunosuppression

CCCCCCCCCCCCCCCC(=O)OC[C@H](O)[C@H]1OC(=O)C(O)=C1O [ascorbyl-6-palmitate, Ascorbyl-6-palmitate]
photoaging changes / protection against photoaging in mouse skin (mouse skin): failed to demonstrate protection against photoaging | skin levels of ascorbic acid ([5]; topical serum containing 10 wt %): no significant increase

O=C1O[C@H]([C@@H](O)CO)C([O-])=C1OP(=O)([O-])[O-].O=C1O[C@H]([C@@H](O)CO)C([O-])=C1OP(=O)([O-])[O-].[Mg+2].[Mg+2].[Mg+2] [magnesium ascorbyl 2-phosphate]
skin levels of ascorbic acid ([5]; topical serum containing 13 wt %): failed to increase skin levels of ascorbic acid
